{"source": "a melting point compilation (Tetko et al.; mined from patent text by program, amines drawn as free bases though some values may be those of a salt)", "note": "Non-standard residues stand in square brackets, D forms with d. Residues, ends and D or L forms follow the SMILES beside them. *: point of attachment. Npys = O=[N+]([O-])c1cccnc1S*; Mpa = O=C(O)CCS"}
{"units": {"melting point": "°C"}}
{"smiles": "COC(=O)C1=C(C)NC(C)=C(C(=O)OCC2CCCO2)C1c1cccc(O)c1", "note": "(stereo not drawn)", "melting point": "170 to 172"}
{"smiles": "Cc1ccc(-c2c(CNC(=O)OC(C)(C)C)n(CC(C)C)c(=O)c3ccc(C(=O)O)cc23)cc1", "melting point": "230 to 231"}
{"smiles": "CC(C)(C)c1cc(C(=O)OCCc2ccc([N+](=O)[O-])cc2)cc(C(C)(C)C)c1O", "melting point": 124}
{"smiles": "Cc1cc(CN2N=C(C(F)(F)C(F)(F)F)NC2(O)c2ccc(Cl)cc2)ccc1[N+](=O)[O-]", "note": "(stereo not drawn)", "melting point": "90 to 92"}
{"smiles": "Cc1cccc(-c2nc(O)c(C)s2)c1Cl", "melting point": "183 to 184"}
{"smiles": "COC(=O)CCCC(=O)NS(=O)(=O)c1ccc(N)cc1", "melting point": "> 260"}
{"smiles": "COC(=O)c1sccc1S(=O)(=O)NC(=O)Nc1nc(OC)cc(OC)n1", "melting point": "191 to 193"}
{"smiles": "CCCCCCCCCCCCCCOc1ccc(CC(=O)OC)cc1Cl", "melting point": "24 to 25"}
{"smiles": "Cc1cccc(-c2nc(NC(=O)c3ccc(Cl)nc3)sc2-c2ccnc(NC3CCCC3)c2)c1", "melting point": "211 to 212"}
{"smiles": "COc1ccc(CCNC(C)=O)cc1OC1CCCC1", "melting point": "87 to 88"}
{"smiles": "Cc1c(C)c2c(c(C)c1N)CC(C)(CN1CCC(O)(c3ccc(Cl)cc3)CC1)O2", "note": "(stereo not drawn)", "melting point": "118 to 120"}
{"smiles": "COc1ccc(C(=O)Nc2cc(-c3c(-c4cccc(C)c4)nc4cccnn34)ccn2)cc1", "melting point": "177 to 178"}
{"smiles": "CC(C)(C)NC(=S)c1nn(-c2ccc(F)cc2F)c2c1C1CCC2C1", "note": "(stereo not drawn)", "melting point": "148 to 150"}
{"smiles": "COC(=O)c1c(OC)ccc(OC)c1N=CN(C)C", "melting point": "81 to 83"}
{"smiles": "Cc1ccc(S(=O)(=O)N(c2ccc(Cl)cc2[N+](=O)[O-])C2CC2)cc1", "melting point": "98.5 to 100"}
{"smiles": "O=C(Cn1ncc2cc(/C=C/C(c3cc(Cl)c(F)c(Cl)c3)C(F)(F)F)ccc2c1=O)NCC(F)(F)F", "note": "(stereo not drawn)", "melting point": "172 to 175"}
{"smiles": "O=C(CSc1ccc(C2=NCC(c3cc(Cl)cc(Cl)c3)(C(F)(F)F)C2)cc1Cl)NCC(F)(F)F", "note": "(stereo not drawn)", "melting point": 189}
{"smiles": "COC(=O)NC(=NS(=O)(=O)NC1CCCCC1)OC", "melting point": "84 to 86"}
{"smiles": "CC(C)(CC(=O)O)C(Cl)CC(Cl)(Cl)C(F)(F)F", "note": "(stereo not drawn)", "melting point": 61}
{"smiles": "COc1ccc(C(=O)NCCn2c(C)ccc2C)cc1OC", "melting point": "82 to 84"}
{"smiles": "NC(=O)c1sc2ncnc(-c3cccc(NC(=O)Cc4ccccc4)c3)c2c1N", "melting point": "255 to 258"}
{"smiles": "O=c1[nH]c2cccnc2c2nc(-c3ccccc3)cn12", "melting point": "329 to 330"}
{"smiles": "Cc1sc(Nc2cccc(C#N)n2)nc1-c1cn[nH]c1", "melting point": 331}
{"smiles": "COC(=O)c1ccc(NC(=O)/C=C/c2c(C)noc2-c2ccccc2)cc1", "melting point": "174 to 175"}
{"smiles": "CC(C)C[C@@H](C=O)NC(=O)[C@H](Cc1c[nH]cn1)NC(=O)[C@H](Cc1ccccc1)NC(=O)CCSSc1ncccc1[N+](=O)[O-]", "note": "([Mpa](Npys)FHL-aldehyde)", "melting point": "101 to 105"}
{"smiles": "CCO[C@H](C(=O)N1C(=O)OC[C@@H]1Cc1ccccc1)[C@H](O)c1ccc2oc(Cc3nc(-c4ccccc4)oc3C)cc2c1", "melting point": 66}
{"smiles": "CCCCCCNc1nc(N)nc2c1ncn2C1CC(F)C(CO)O1", "note": "(stereo not drawn)", "melting point": "50 to 51"}
{"smiles": "COc1ccnc(CCc2nc3cc(-c4ccc(S(=O)(=O)N5CCN(c6ccccc6)CC5)cc4)cnc3[nH]2)c1", "melting point": "218 to 220"}
{"smiles": "CNC(=O)Oc1ccc2[nH]cc(CCCN3CCN(c4ncncc4OC)CC3)c2c1", "melting point": "120 to 122"}
{"smiles": "FC(F)(F)c1n[nH]c(C(F)(F)F)n1", "melting point": "74 to 75"}
{"smiles": "COc1cccc(C2(N(C)C)CCC(C(O)Cc3ccccc3)CC2)c1", "note": "(stereo not drawn)", "melting point": 72}
{"smiles": "Cc1ccc(CNc2nc(OCC(F)(F)F)nc(Oc3cccc(C(F)(F)F)c3)n2)o1", "melting point": "116 to 118"}
{"smiles": "O=C(NCCN1CCC(Nc2nc3ccccc3n2Cc2ccc(F)cc2)CC1)c1ccc(F)cc1", "melting point": 194}
{"smiles": "O[C@@H](CNCCOc1ccc2oc(-c3ccon3)cc2c1)c1cccc(C(F)(F)F)c1", "melting point": "113 to 114"}
{"smiles": "CC1=NNC(=O)N(N)C1", "melting point": "117 to 119"}
{"smiles": "CC(=O)c1c(C)[nH]c(C(C)c2ccccc2)c1C", "note": "(stereo not drawn)", "melting point": "146 to 148"}
{"smiles": "CCN(CC)C(=O)Cc1c(C)n(Cc2ccccc2)c2ccc(OCc3nc4ccccc4s3)cc12", "melting point": "111 to 112"}
{"smiles": "O=C1c2ccc(Sc3ccc4c(c3)C(=O)N(c3ccccc3)C4=O)cc2C(=O)N1c1ccccc1", "melting point": "275 to 280"}
{"smiles": "Cc1ccc(C2CC(CN(C)C)Oc3ccccc32)cc1", "note": "(stereo not drawn)", "melting point": "114 to 116"}
{"smiles": "Cc1c(F)cc(C(=O)OC(C)(C)C)cc1I", "melting point": "77 to 80"}
{"smiles": "C=CCc1cc(C=C(C(=O)OCC)C(=O)OCC)ccc1OC", "melting point": 69}
{"smiles": "Cc1ncn(-c2nc(C(=O)NCc3ccc(F)c(C)c3)c(O)c(=O)n2C)n1", "melting point": "204 to 205"}
{"smiles": "CC(C)N(c1ccc(O)cc1)S(=O)(=O)c1ccc(O)cc1", "melting point": "158 to 159"}
{"smiles": "Cc1ccc(-c2[nH]c(C(C)(C)C)nc2C(=O)Nc2nccs2)cc1", "melting point": 218}
{"smiles": "CCOC(=O)c1cnc(N2CCN(S(=O)(=O)c3ccc4ccccc4c3)CC2)nc1", "melting point": "> 260"}
{"smiles": "Cc1cc(C#N)cc(C(=O)Nc2ccc(Cl)cn2)n1", "melting point": 234}
{"smiles": "COCCc1nnc(NC(=O)C(c2ccccc2)c2ccccc2)o1", "melting point": "114 to 115"}
{"smiles": "CN1CCN(C(=O)OC2c3ccccc3C(=O)N2c2ccc3c(Cl)ccnc3n2)CC1", "note": "(stereo not drawn)", "melting point": 240}
{"smiles": "CN(C)CCNC(=O)c1ccc2c(c1)CN(C(=O)CCCCCN1CCN(c3cccc(C(F)(F)F)c3)CC1)C2", "melting point": 120}
{"smiles": "NCc1ccc(CC(N)=O)cc1", "melting point": "138 to 140"}
{"smiles": "O=Cc1cc(OCCl)c(O)cc1[N+](=O)[O-]", "melting point": "160 to 161"}
{"smiles": "CC(C)CC(=O)Nc1cccc(-c2ccnc3c(-c4ccc5[nH]ccc5c4)cnn23)c1", "melting point": "167 to 169"}
{"smiles": "Nc1ncnc2c1ncn2Cc1nc2cccc(Cl)c2c(=O)n1-c1ccccc1-c1ccccc1", "melting point": 300}
{"smiles": "CCCCC(=O)Nc1cccc2c1C(=O)N(C1CCC(=O)NC1=O)C2=O", "note": "(stereo not drawn)", "melting point": "178 to 179"}
{"smiles": "CC(=O)c1c(C)cc(=O)[nH]c1C", "melting point": "160 to 162"}
{"smiles": "N=C(Nc1ccc(Cl)cc1)NC1CC2C3CC4C2C4C13", "note": "(stereo not drawn)", "melting point": "170 to 171"}
{"smiles": "CCCC1(CCC)c2cc(-c3nc4cc(C)ccc4o3)ccc2-c2cc(O)c(-c3nc4cc(C)ccc4o3)cc21", "melting point": "291 to 293"}
{"smiles": "CC(=O)NC(=O)OCc1nc(C(C)C)c(Sc2cc(Cl)cc(Cl)c2)n1Cc1ccncc1", "melting point": "135 to 137"}
{"smiles": "N#CCc1ccc(Br)nc1", "melting point": "55.5 to 57.5"}
{"smiles": "NNC(=O)c1ccc2c(c1)CCO2", "melting point": "148 to 149"}
{"smiles": "CC(C)(C)NS(=O)(=O)Cc1ccccc1N", "melting point": "115 to 117"}
{"smiles": "CN1CCN(c2cc(Cl)cc3c2c(=O)n(Cc2ccc(Cl)cc2)c(=O)n3Cc2ccccc2)CC1", "melting point": "92 to 97"}
{"smiles": "CSCCCC(=O)C(=C1NCCCS1)[N+](=O)[O-]", "melting point": "49 to 49.5"}
{"smiles": "COc1ccc(F)cc1C(C)(C)CC(O)(Cn1cc(C)c(=O)c2ccccc21)C(F)(F)F", "note": "(stereo not drawn)", "melting point": "> 225"}
{"smiles": "Cc1ccccc1C1(C#N)C2CC3CC(C2)CC1C3", "note": "(stereo not drawn)", "melting point": "80 to 81"}
{"smiles": "O=[N+]([O-])c1ccc(CCS(=O)(=O)NCc2ccccc2)cc1", "melting point": "125 to 127"}
{"smiles": "O=C(N=CNO)c1cc2c(cn1)[nH]c1ccccc12", "melting point": "235 to 240"}
{"smiles": "O=C(O)c1ccc(OCc2ccccc2)c(OCc2ccccc2)c1", "melting point": "184 to 185"}
{"smiles": "O=C(O)c1cc(Cl)ccc1NC(=O)C(CS)Cc1ccccc1", "note": "(stereo not drawn)", "melting point": "157 to 158"}
{"smiles": "Cc1cc(=O)n(Cc2ccccc2)c2ccccc12", "melting point": "109 to 111"}
{"smiles": "COc1cc(F)ccc1CCn1ccn2c(=O)cc(-c3ccncn3)nc12", "melting point": "196 to 198"}
{"smiles": "O=C(COc1ccc([N+](=O)[O-])c(F)c1)NCc1ccccc1", "melting point": "128 to 130"}
{"smiles": "Cc1cccc(Cn2ncc3c(N4CCN(C(=O)OC(C)(C)C)CC4)ncnc32)c1", "melting point": "130 to 131"}
{"smiles": "CC(Oc1cccc(C=Cc2ccc3ccc(Cl)cc3n2)c1)C(N)=O", "note": "(single isomer, unassigned; (-))", "melting point": "195 to 197"}
{"smiles": "O=C(CNc1c(C(=O)O)[nH]c2cc(F)ccc12)c1ccccc1", "melting point": "142 to 143"}
{"smiles": "N#CCCS(=O)(=O)c1ccc(S(=O)(=O)Cl)cc1", "melting point": "124 to 125"}
{"smiles": "COc1cccc(C(=O)P2(=O)Oc3ccccc3-c3ccccc32)c1", "note": "(stereo not drawn)", "melting point": "116 to 118"}
{"smiles": "O=C(NC(=O)c1c(F)cccc1Cl)Nc1ccc(C(F)(F)F)c(F)c1", "melting point": 200}
{"smiles": "CC(=O)OC(CBr)Cc1c(O)ccc2ncccc12", "note": "(stereo not drawn)", "melting point": "146 to 148"}
{"smiles": "CCOCc1nc2c(N)nc(C)c(C)c2n1CCCC(=O)N1CCOCC1", "melting point": "156 to 158"}
{"smiles": "COc1cc(O)c2c(=O)c3c(oc2c1)oc1cc(O)ccc13", "melting point": "265 to 268"}
{"smiles": "CCn1cc(C(=O)NCCCN(C)C)c(=O)c2ccc(I)cc21", "melting point": "161 to 162"}
{"smiles": "Cc1nc(N2CCCC2)nc(C)c1-c1cccc2c1OC[C@H]2Nc1ccc2c(c1)OC[C@H]2CC(=O)O", "melting point": 169}
{"smiles": "COc1ccccc1SC(c1ccccc1)c1c(O)cc(-c2ccccc2)oc1=O", "note": "(stereo not drawn)", "melting point": "165 to 170"}
{"smiles": "O=C(O)c1ccc(Cc2cc3cc(Cl)ccc3n2S(=O)(=O)c2ccc3c(c2)OCCO3)s1", "melting point": 196}
{"smiles": "CCNC(=O)c1c(C)cccc1[Si](C)(C)C", "melting point": "64 to 66"}
{"smiles": "O=C(Nc1cc(C(F)(F)F)ccc1Cl)Nc1cc(Cl)cc(Br)c1O", "melting point": "261 to 274"}
{"smiles": "O=c1oc2ccc(F)cc2c(CBr)c1Br", "melting point": "125 to 127"}
{"smiles": "CC(OC(=O)c1cc(-n2c(=O)cc(C(F)(F)F)n(C)c2=O)ccc1Cl)C1CC1", "note": "(stereo not drawn)", "melting point": "118 to 119"}
{"smiles": "CCCc1c(OCCCCCOc2cc(OCCCC(=O)O)ccc2CCC(=O)O)ccc2c1OCCC2=O", "melting point": "163 to 164"}
{"smiles": "CCCN(Cc1ccc(-c2ccccc2-c2nc(=O)s[nH]2)cc1)c1nc2ccccc2cc1C(=O)O", "melting point": "118 to 124"}
{"smiles": "O=C(O)c1nc(-c2ccccc2Oc2ccc(F)cc2O)no1", "melting point": "127 to 128"}
{"smiles": "COc1cc2ncnc(N3CCc4ccc(-c5ccccc5)cc43)c2cc1OC", "melting point": "175 to 177"}
{"smiles": "O=c1c(Br)cn(Cc2ccccc2)cc1Cc1ccccc1", "melting point": "120 to 121"}
{"smiles": "CC(=O)Nc1ccc(N(C)C(=O)OCc2ccccc2)c(O)c1", "melting point": 174}
{"smiles": "COC(=O)c1ccc(Cl)cn1", "melting point": "83 to 86"}
{"smiles": "Nc1cc(N2CC(COCc3ccccc3)OC2=O)ccn1", "note": "(stereo not drawn)", "melting point": "122 to 123"}
{"smiles": "Cc1ccc(-c2ccc(C(=O)Nc3ccc4nc(CN(C(C)C)C(C)C)ccc4c3)cn2)cc1", "melting point": "211 to 213"}
